# Target: T1, human vasopressin V1b receptor (Homo sapiens, UniProt P47901)
# T1 construct: expressed in transfected cells; host or cells: CHO-K1 (cell line hV1b-3H2_CHO), membrane preparation
# T1 sequence (P47901 1-424): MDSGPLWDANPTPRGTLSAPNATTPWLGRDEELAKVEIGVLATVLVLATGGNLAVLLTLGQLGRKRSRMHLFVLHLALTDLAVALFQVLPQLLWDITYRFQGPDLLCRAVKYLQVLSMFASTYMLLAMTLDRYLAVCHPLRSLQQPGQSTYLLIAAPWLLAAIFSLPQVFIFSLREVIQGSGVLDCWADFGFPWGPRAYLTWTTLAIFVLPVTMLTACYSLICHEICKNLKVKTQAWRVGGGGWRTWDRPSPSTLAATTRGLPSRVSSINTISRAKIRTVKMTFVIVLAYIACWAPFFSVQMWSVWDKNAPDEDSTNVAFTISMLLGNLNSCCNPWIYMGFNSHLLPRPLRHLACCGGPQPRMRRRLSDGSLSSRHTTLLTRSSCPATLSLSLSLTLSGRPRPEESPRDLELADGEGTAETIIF
# Test: Vasopressin V1b receptor binding assay
# Settings: membranes from CHO-K1 cells with stably expressed human V1b receptors, 1.5 nM 3H-AVP displacement; with more than one stereogenic center: the diastereomer with stronger affinity
# Method in brief: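 Membranes bearing human V1b receptor incubated 60 min at room temperature in 50 mM Tris, 10 mM MgCl2, 0.1% BSA, pH 7.4, 2% DMSO, triplicate.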
row,SMILES,Ki [nM]
1,"CCOc1ccc(CC)cc1C1(N2CCN(c3ccnc(C)c3)CC2)C(=O)N(S(=O)(=O)c2ccc(OC)cn2)c2ccc(C#N)cc21 (racemic) [Example 165, (±)-5-Cyano-3-(2-ethoxy-5-ethyl-phenyl)-1-(5-methoxy-pyridine-2-sulfonyl)-3-[4-(2-methyl-pyridin-4-yl)-piperazin-1-yl]-2,3-dihydro-1H-indol-2-one]",< 10
2,"CCOc1ccc(CC)cc1C1(N2CCN(c3ccnc(C(C)C)c3)CC2)C(=O)N(S(=O)(=O)c2ccc(OC)cn2)c2ccc(C#N)cc21 (racemic) [Example 166, (±)-5-Cyano-3-(2-ethoxy-5-ethyl-phenyl)-3-[4-(2-isopropyl-pyridin-4-yl)-piperazin-1-yl]-1-(5-methoxy-pyridine-2-sulfonyl)-2,3-dihydro-1H-indol-2-one]",< 10
3,"CCOc1c(OC)cccc1C1(N2CCN(c3ccnc(C(C)C)c3)CC2)C(=O)N(S(=O)(=O)c2ccc(OC)cn2)c2ccc(C#N)cc21 (racemic) [Example 173, (±)-5-Cyano-3-(2-ethoxy-3-methoxy-phenyl)-3-[4-(2-isopropyl-pyridin-4-yl)-piperazin-1-yl]-1-(5-methoxy-pyridine-2-sulfonyl)-2,3-dihydro-1H-indol-2-one]",< 10
4,"CCOc1cc(OC)ccc1C1(N2CCN(c3ccnc(C(C)C)c3)CC2)C(=O)N(S(=O)(=O)c2ccc(OC)cn2)c2ccc(C#N)cc21 (racemic) [Example 175, (±)-5-Cyano-3-(2-ethoxy-4-methoxy-phenyl)-3-[4-(2-isopropyl-pyridin-4-yl)-piperazin-1-yl]-1-(5-methoxy-pyridine-2-sulfonyl)-2,3-dihydro-1H-indol-2-one]",< 10
5,"CCOc1cc(OC)ccc1C1(N2CCN(c3ccnc(C)c3)CC2)C(=O)N(S(=O)(=O)c2ccc(OC)cn2)c2ccc(C#N)cc21 (racemic) [Example 178, (±)-5-Cyano-3-(2-ethoxy-4-methoxy-phenyl)-1-(5-methoxy-pyridine-2-sulfonyl)-3-[4-(2-methyl-pyridin-4-yl)-piperazin-1-yl]-2,3-dihydro-1H-indol-2-one]",10 to 50
6,"CCOc1c(OC)cccc1C1(N2CCN(c3ccnc(C)c3)CC2)C(=O)N(S(=O)(=O)c2ccc(OC)cn2)c2ccc(C#N)cc21 (racemic) [Example 179, (±)-5-Cyano-3-(2-ethoxy-3-methoxy-phenyl)-1-(5-methoxy-pyridine-2-sulfonyl)-3-[4-(2-methyl-pyridin-4-yl)-piperazin-1-yl]-2,3-dihydro-1H-indol-2-one]",< 10
7,"CCOc1ccc(C)cc1C1(N2CCN(c3ccnc(C)c3)CC2)C(=O)N(S(=O)(=O)c2ccc(OC)cn2)c2ccc(C#N)cc21 (racemic) [Example 180, (±)-5-Cyano-3-(2-ethoxy-5-methyl-phenyl)-1-(5-methoxy-pyridine-2-sulfonyl)-3-[4-(2-methyl-pyridin-4-yl)-piperazin-1-yl]-2,3-dihydro-1H-indol-2-one]",< 10
8,"CCOc1ccccc1C1(N2CCN(c3ccncc3)CC2)C(=O)N(S(=O)(=O)c2cccc3cccnc23)c2ccc(C#N)cc21 (single isomer, unassigned; (+)) [Example 60, (+)-5-Cyano-3-(2-ethoxyphenyl)-3-(4-pyridin-4-ylpiperazin-1-yl)-1-(quinolin-8-sulfonyl)-2,3-dihydro-1H-indol-2-one]",< 10
9,"CCOc1ccccc1C1(N2CCN(c3ccncc3)CC2)C(=O)N(S(=O)(=O)c2ccc(C)cn2)c2ccc(C#N)cc21 (single isomer, unassigned; (+)) [Example 61, (+)-5-Cyano-3-(2-ethoxyphenyl)-1-(5-methylpyridine-2-sulfonyl)-3-(4-pyridin-4-yl-piperazin-1-yl)-2,3-dihydro-1H-indol-2-one]",< 10
10,"CCOc1ccccc1C1(N2CCN(c3ccncc3)CC2)C(=O)N(S(=O)(=O)c2cccc3c(C)ccnc23)c2ccc(C#N)cc21 (single isomer, unassigned; (+)) [Example 63, (+)-5-Cyano-3-(2-ethoxyphenyl)-1-(4-methylquinoline-8-sulfonyl)-3-(4-pyridin-4-yl-piperazin-1-yl)-2,3-dihydro-1H-indol-2-one]",< 10
11,"CCOc1ccccc1C1(N2CCN(c3ccncc3)CC2)C(=O)N(S(=O)(=O)c2ccc(OC)cn2)c2ccc(C#N)cc21 (single isomer, unassigned; (+)) [Example 64, (+)-5-Cyano-3-(2-ethoxyphenyl)-1-(5-methoxypyridine-2-sulfonyl)-3-(4-pyridin-4-yl-piperazin-1-yl)-2,3-dihydro-1H-indol-2-one]",< 10
12,"CCOc1ccccc1C1(N2CCN(c3ccncc3)CC2)C(=O)N(S(=O)(=O)c2ccc(OCC)c3cccnc23)c2ccc(C#N)cc21 (single isomer, unassigned; (+)) [Example 67, (+)-5-Cyano-3-(2-ethoxyphenyl)-1-(5-ethoxyquinoline-8-sulfonyl)-3-(4-pyridin-4-yl-piperazin-1-yl)-2,3-dihydro-1H-indol-2-one]",10 to 50

# The remaining lines, values ahead:
row,Ki [nM],SMILES
1,10 to 50,"CCOc1nc(Cl)ccc1C1(N2CCN(c3ccnc(C(C)C)c3)CC2)C(=O)N(S(=O)(=O)c2ccc(OC)cn2)c2ccc(C#N)cc21 (racemic) [Example 167, (±)-5-Cyano-3-(6-chloro-2-ethoxy-pyridin-3-yl)-3-[4-(2-isopropyl-pyridin-4-yl)-piperazin-1-yl]-1-(5-methoxy-pyridine-2-sulfonyl)-2,3-dihydro-1H-indol-2-one]"
2,10 to 50,"CCOc1nc(Cl)ccc1C1(N2CCCN(c3ccncc3)CC2)C(=O)N(S(=O)(=O)c2ccc(OC)cn2)c2ccc(C#N)cc21 (racemic) [Example 168, (±)-5-Cyano-3-(6-chloro-2-ethoxy-pyridin-3-yl)-1-(5-methoxy-pyridine-2-sulfonyl)-3-(4-pyridin-4-yl-[1,4]diazepan-1-yl)-2,3-dihydro-1H-indol-2-one]"
3,< 10,"CCOc1ccc(C)cc1C1(N2CCN(c3ccncc3)CC2)C(=O)N(S(=O)(=O)c2ccc(OC)cn2)c2ccc(C#N)cc21 (racemic) [Example 169, (±)-5-Cyano-3-(2-ethoxy-5-methyl-phenyl)-1-(5-methoxy-pyridine-2-sulfonyl)-3-(4-pyridin-4-yl-piperazin-1-yl)-2,3-dihydro-1H-indol-2-one]"
4,< 10,"CCOc1nc(Cl)ccc1C1(N2CCC(N3CCN(C)CC3)CC2)C(=O)N(S(=O)(=O)c2ccc(OC)cn2)c2ccc(C#N)cc21 (racemic) [Example 170, (±)-5-Cyano-3-(6-chloro-2-ethoxy-pyridin-3-yl)-1-(5-methoxy-pyridine-2-sulfonyl)-3-[4-(4-methyl-piperazin-1-yl)-piperidin-1-yl]-2,3-dihydro-1H-indol-2-one]"
5,< 10,"CCOc1cc(OC)ccc1C1(N2CCC(N3CCN(C)CC3)CC2)C(=O)N(S(=O)(=O)c2ccc(OC)cn2)c2ccc(C#N)cc21 (racemic) [Example 171, (±)-5-Cyano-3-(2-ethoxy-4-methoxy-phenyl)-1-(5-methoxy-pyridine-2-sulfonyl)-3-[4-(4-methyl-piperazin-1-yl)-piperidin-1-yl]-2,3-dihydro-1H-indol-2-one]"
6,< 10,"CCOc1ccc(OC)cc1C1(N2CCN(C3CCNCC3)CC2)C(=O)N(S(=O)(=O)c2ccc(OC)cn2)c2ccc(C#N)cc21 (racemic) [Example 172, (±)-5-Cyano-3-(2-ethoxy-5-methoxy-phenyl)-1-(5-methoxy-pyridine-2-sulfonyl)-3-(4-piperidin-4-yl-piperazin-1-yl)-2,3-dihydro-1H-indol-2-one]"
7,< 10,"CCOc1cc(OC)ccc1C1(N2CCC(N3CCNCC3)CC2)C(=O)N(S(=O)(=O)c2ccc(OC)cn2)c2ccc(C#N)cc21 (racemic) [Example 174, (±)-5-Cyano-3-(2-ethoxy-4-methoxy-phenyl)-1-(5-methoxy-pyridine-2-sulfonyl)-3-(4-piperazin-1-yl-piperidin-1-yl)-2,3-dihydro-1H-indol-2-one]"
8,< 10,"CCOc1nc(Cl)ccc1C1(N2CCN(C3CCNCC3)CC2)C(=O)N(S(=O)(=O)c2ccc(OC)cn2)c2ccc(C#N)cc21 (racemic) [Example 176, (±)-5-Cyano-3-(6-chloro-2-ethoxy-pyridin-3-yl)-1-(5-methoxy-pyridine-2-sulfonyl-3-(4-piperidin-4-yl-piperazin-1-yl)-2,3-dihydro-1H-indol-2-one]"
9,< 10,"CCOc1nc(Cl)ccc1C1(N2CCCN(c3ccnc(C)c3)CC2)C(=O)N(S(=O)(=O)c2ccc(OC)cn2)c2ccc(C#N)cc21 (racemic) [Example 177, (±)-5-Cyano-3-(6-chloro-2-ethoxy-pyridin-3-yl)-1-(5-methoxy-pyridine-2-sulfonyl)-3-[4-(2-methyl-pyridin-4-yl)-[1,4]diazepan-1-yl]-2,3-dihydro-1H-indol-2-one]"
10,< 10,"CCOc1ccc(OC)cc1C1(N2CCC(C3CCNCC3)CC2)C(=O)N(S(=O)(=O)c2ccc(OC)cn2)c2ccc(C#N)cc21 (racemic) [Example 181, (±)-5-Cyano-3-[4,4′]bipiperidinyl-1-yl-3-(2-ethoxy-5-methoxy-phenyl)-1-(5-methoxy-pyridine-2-sulfonyl)-2,3-dihydro-1H-indol-2-one]"
11,< 10,"CCOc1nc(Cl)ccc1C1(N2CCC(N3CCNCC3)CC2)C(=O)N(S(=O)(=O)c2ccc(OC)cn2)c2ccc(C#N)cc21 (racemic) [Example 182, (±)-5-Cyano-3-(6-chloro-2-ethoxy-pyridin-3-yl)-1-(5-methoxy-pyridine-2-sulfonyl)-3-(4-piperazin-1-yl-piperidin-1-yl)-2,3-dihydro-1H-indol-2-one]"

# Reference: patent publication US8486931B2, “Substituted oxindole compounds” (Abbott GmbH & Co. KG, priority 2007, dated 2013)
